{"source": "patent US20050032160A1", "about": "“Cell-based therapies for diabetes mellitus and other glucose intolerant states” (priority 2003, published 2005)", "key": {"[1]": {"tested_on": "β-cell", "details": "non-metabolizable analogs of glucose; cited from earlier work"}, "[2]": {"tested_on": "glycerol kinase overexpressing 832/13 cells", "experiment": "Pyruvate cycling (13C studies) in glycerol kinase overexpressing 832/13 cells", "assay_type": "cell-based, rat", "details": "glycerol versus glucose", "description": "(§1) FIG. 9 depicts the effect of glycerol kinase overexpression in 832/13 cells on insulin excretion, lactate output and pyruvate cycling.\n(§2) In contrast, pyruvate cycling and lactate output are higher in response to glycerol than to glucose."}, "[3]": {"tested_on": "glycerol kinase overexpressing 832/13 cells", "experiment": "Insulin secretion in glycerol kinase overexpressing 832/13 cells", "assay_type": "cell-based, rat", "details": "glucose versus glycerol", "description": "as §1, §2"}, "[4]": {"tested_on": "glycerol kinase overexpressing 832/13 cells", "experiment": "Lactate output in glycerol kinase overexpressing 832/13 cells", "assay_type": "cell-based, rat", "details": "glycerol versus glucose", "description": "as §1, §2"}, "[5]": {"tested_on": "832/13 cells", "experiment": "Insulin secretion assay (radioimmunoassay) in 832/13 cells", "assay_type": "cell-based, rat", "details": "relative to glucose or pyruvate", "experimental": "The cell line 832/13 was created from INS-1 insulinoma β-cells as described earlier (Hohmeier et al. (2000) Diabetes 49:424-430). Cells were cultured in RPMI-1640 medium containing 11 mM glucose supplemented with 10% fetal bovine serum, 10 mM HEPES, 2 mM glutamine, 1 mM sodium pyruvate and […] β-mercaptoethanol. Media was routinely changed every second day. 832/13 cells were split to a cell density of 20-30% confluence in 12 well plates. At a cell density of 90%, cells were exposed to virus by adding crude extract directly to the growth media. After 16 hours of transduction, virus containing media was removed and the cells were cultured in fresh media in additional 24 hours before secretion assays. Insulin secretion was assayed in HEPES buffered saline solution (HBSS) (114 mM NaCl, 4.7 mM KCl,1.2 mM KH2PO4, 1.16 mM MgSO4, 20 mM HEPES, 2.5 mM CaCl2, 25.5 mM NaHCO3, pH 7.2 containing 0.2% bovine serum albumin (essentially fatty acid free). Cells were washed in 1 ml of HBSS, preincubated in 1.5 ml of HBSS for 2 hour prior to a 2 hour incubation in the presence of secretagogues as indicated in the figures. The insulin levels were determined by radioimmunoassay with the Coat-A-Count kit (ICN Pharmaceuticals, Costa Mesa, Calif.) and lactate output was determined with a Lactate Reagent kit (Sigma, St. Louis, Mo.) according to protocols outlined by the manufacturer."}, "[6]": {"tested_on": "rat INS-1 cells", "details": "glucose-responsive clones; correlated with pyruvate cycling; cited from earlier work"}}, "note": "“Also recorded” adds a separate entry of the source."}
{"compound": "O=CC[C@@H](O)[C@H](O)[C@H](O)CO", "note": "[2-deoxy glucose]", "values": [{"measurement": "stimulation of insulin release", "setting": "[1]", "result": "fail to stimulate insulin release"}]}
{"compound": "CO[C@@H]([C@H](O)[C@H](O)CO)[C@@H](O)C=O", "note": "[3-O-methyl glucose]", "values": [{"measurement": "stimulation of insulin release", "setting": "[1]", "result": "fail to stimulate insulin release"}]}
{"compound": "OCC(O)CO", "note": "[glycerol]", "values": [{"measurement": "pyruvate cycling", "setting": "[2]", "result": "higher"}, {"measurement": "stimulation of insulin secretion", "setting": "[3]", "result": "to the same extent"}, {"measurement": "lactate output", "setting": "[4]", "result": "higher"}]}
{"compound": "CC(O)C(=O)O", "note": "(stereo not shown) [lactate]", "values": [{"measurement": "stimulation of insulin secretion as secretagogue", "setting": "[5]; 832/13 cells overexpressing LDHA", "result": "as effective as the other two fuels; also recorded: as effective as glucose or pyruvate"}, {"measurement": "stimulation of insulin secretion as secretagogue", "setting": "[5]; 832/13 cells without LDH overexpression", "result": "poor secretagogue; also recorded: only a weak stimulator of IS"}, {"measurement": "stimulation of insulin secretion as secretagogue", "setting": "[5]; 832/13 cells without LDH overexpression, listed as Lactate", "result": "poor secretagogue"}]}
{"compound": "O=C(O)CC(O)C(=O)O", "note": "(stereo not shown) [malate]", "values": [{"measurement": "effect on glucose-stimulated IS", "setting": "[6]", "result": "potentiated"}]}
{"compound": "O=C(O)Cc1ccccc1", "note": "[phenylacetic acid]", "values": [{"measurement": "effect on glucose-stimulated IS", "setting": "[6]", "result": "impaired"}]}
